From US12668591B2, “1,2,4-oxadiazole derivatives as histone deacetylase 6 inhibitors” (Oryzon Genomics, S.A., priority 2017, dated 2026)

What was measured:
HDAC6 [1] = target: T1, HDAC6 (Homo sapiens, UniProt Q9UBN7); assay: In vitro cell-based assay: acetylation levels of Alpha-Tubulin by Western Blot in MOLP8 cells; parameters: endogenous in cells; host or cells: MOLP8; details: 18 h, acetyl-alpha-tubulin relative band intensity, ACY-1215 1 μM = 100%
T1 sequence (Q9UBN7 1-1215): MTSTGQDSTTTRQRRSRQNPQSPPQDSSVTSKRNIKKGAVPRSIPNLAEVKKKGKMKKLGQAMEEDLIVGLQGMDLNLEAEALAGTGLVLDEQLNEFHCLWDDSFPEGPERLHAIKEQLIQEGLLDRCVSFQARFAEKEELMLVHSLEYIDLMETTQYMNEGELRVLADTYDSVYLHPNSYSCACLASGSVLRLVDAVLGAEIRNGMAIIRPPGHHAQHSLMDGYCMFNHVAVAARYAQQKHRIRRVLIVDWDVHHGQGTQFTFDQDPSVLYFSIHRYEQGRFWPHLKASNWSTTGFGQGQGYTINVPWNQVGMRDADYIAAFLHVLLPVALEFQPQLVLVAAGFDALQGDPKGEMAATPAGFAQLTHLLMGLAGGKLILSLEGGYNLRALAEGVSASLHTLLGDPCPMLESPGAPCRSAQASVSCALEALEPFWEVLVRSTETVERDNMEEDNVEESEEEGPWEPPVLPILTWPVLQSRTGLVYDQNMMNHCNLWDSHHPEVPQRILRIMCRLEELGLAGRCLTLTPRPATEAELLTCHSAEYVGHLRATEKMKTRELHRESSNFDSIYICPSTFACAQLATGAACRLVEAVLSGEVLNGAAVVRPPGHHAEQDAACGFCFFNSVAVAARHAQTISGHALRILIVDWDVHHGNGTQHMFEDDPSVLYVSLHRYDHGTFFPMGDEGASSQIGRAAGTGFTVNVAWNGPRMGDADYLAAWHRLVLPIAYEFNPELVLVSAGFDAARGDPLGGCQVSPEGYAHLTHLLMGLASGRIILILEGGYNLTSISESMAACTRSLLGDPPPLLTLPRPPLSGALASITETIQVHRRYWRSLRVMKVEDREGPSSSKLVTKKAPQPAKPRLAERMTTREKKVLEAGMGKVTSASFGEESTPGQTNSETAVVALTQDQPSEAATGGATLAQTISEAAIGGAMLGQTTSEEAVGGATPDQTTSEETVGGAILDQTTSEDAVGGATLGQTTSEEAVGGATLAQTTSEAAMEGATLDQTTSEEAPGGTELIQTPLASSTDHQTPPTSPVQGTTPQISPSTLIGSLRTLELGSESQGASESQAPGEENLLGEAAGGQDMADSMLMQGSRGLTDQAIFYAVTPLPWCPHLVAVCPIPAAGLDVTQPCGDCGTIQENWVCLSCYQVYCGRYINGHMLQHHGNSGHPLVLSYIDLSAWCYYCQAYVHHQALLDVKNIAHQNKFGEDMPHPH
Method: In Vitro Cell-Based Assay
In order to determine the cellular activity of HDAC6 upon treatment with HDAC6 inhibitors, acetylation levels of Alpha-Tubulin (a HDAC6-specific substrate) were measured by Western Blot. For this, MOLP8 cells were seeded in 6-well plates at a cell density of 500.000 cells/well and treated with the selected compounds at 5 and 1 μM for 18 h at 37° C. and 5% CO2 in a humidified tissue culture incubator. Consecutively, cell pellets were collected and whole protein extracts prepared using RIPA buffer (SIGMA) supplemented with 1× protease inhibitors (cOmplete mini, Roche). Protein concentration was determined with Bradford's reagent (Bio-Rad) as per manufacturer's instructions, and 7 μg of total protein were loaded into pre-cast 10% NuPAGE Novex gels (Life Technologies). Gels were run in […] (Life Technologies) and proteins were transferred using the iBlot 2 Dry Blotting System (Life Technologies). Blots were subsequently rinsed in distilled water and stained with Ponceau S solution (SIGMA). Blots were then washed in distilled water to remove Ponceau excess and scanned with the Epson Perfection V600 Photo professional Scanner. After this, blots were de-stained and blocked in 5% milk/PBS-Tween 0.1% for 1 h at room temperature followed by incubation with anti-Acetyl-alpha Tubulin (SIGMA cat. #T7451, 1:10.000 dilution) and anti-Beta-actin (SIGMA, cat. #A5316, 1:2.000 dilution) primary antibodies in 5% milk/PBS-T 0.1%, overnight at 4° C. on a shaking platform. After incubation, blots were washed 3 times for 5 minutes each in PBS-Tween 0.5% and incubated with anti-mouse HRP-conjugated secondary antibody (Jackson Immuno Research, cat. #115-035-068) at 1:8.000 in 5% milk/PBS-Tween 0.1%, 1 h at room temperature on a shaking platform. After 3 washes of 5 minutes each with PBS-Tween 0.5% and 1 wash in PBS 1×, blots were developed with ECL Plus (GE Healthcare) and the chemiluminescent reaction imaged with the G:Box Chemi XRQ (Syngene) imaging system. WB and Ponceau images were analysed with ImageJ software, WB band intensities normalized by either total protein or Beta-actin content and made relative to ACY-1215 1 μM (equivalent to 100%). ACY-1215 is a HDAC6 inhibitor, and is also known as ricolinostat, with chemical name 2-(diphenylamino)-N-[7-(hydroxyamino)-7-oxoheptyl]-5-pyrimidinecarboxamide. Percentage of band intensities was classified as follows: […]

HDAC2 = target: T2, HDAC2 (Homo sapiens, UniProt Q92769); assay: HDAC2 enzyme inhibition assay (fluorimetric); format: biochemical; details: 1 μM compound; 3 h pre-incubation; recombinant full length HDAC2; read-out: HDAC2 % inh @ 1 μM
T2 construct: (full length with C-terminal His-tag); His (C); purchased BPS Bioscience Inc. 50002
Method: (§1) HDAC6 and HDAC2 Enzyme Inhibition Assay
(§2) A fluorimetric assay was used for testing the activity of compounds of the invention against HDAC6 and HDAC2.
(§3) The compounds were dissolved in DMSO. Serial dilutions were prepared in DMSO and then diluted 1:10 in HDAC assay buffer (Tris-buffered solution, BPS Bioscience Inc. #50031). 5 μl of the compound dilution was added to a 50 μl reaction so that the final concentration of DMSO was 1%.
(§4) The compounds were pre-incubated in duplicate at RT for 3 hours in a mixture containing HDAC assay buffer, 5 μg BSA and recombinant HDAC enzyme (see table above). The enzymatic reactions were initiated by the addition of a fluorogenic, acetylated peptide substrate based on a histone protein (BPS Bioscience Inc. #50037) to a final concentration of 10 μM. The enzymatic reaction proceeded for 30 minutes at 37° C. Then, 50 μl of 2× HDAC Developer, which contains peptidase activity and Trichostatin A (BPS Bioscience Inc. #50030) was added and the plate was incubated at RT for an additional 15 minutes. Fluorescence intensity was measured at an excitation of 360 nm and an emission of 460 nm using a Tecan Infinite M1000 microplate reader.
(§5) Trichostatin A (TSA, Selleckchem #S1045) was used as reference inhibitor.
(§6) The fluorescent intensity data were analyzed using the computer software Graphpad Prism (GraphPad Software, San Diego, CA). 100% activity was defined as the fluorescent intensity (Ft) in the absence of the compound. 0% activity was defined as the fluorescent intensity (Fb) in the absence of the enzyme. The percent activity in the presence of each compound was calculated according to the following equation: % activity=(F−Fb)/(Ft−Fb), where F=the fluorescent intensity in the presence of the compound.

HDAC6 [2] = target: T1, HDAC6; assay: HDAC6 enzyme inhibition assay (fluorimetric); format: biochemical; details: 1 μM compound; 3 h pre-incubation; recombinant full length HDAC6; read-out: HDAC6 % inh @ 1 μM
Method: as §1, §2, §3, §4, §5, §6

T2 sequence (Q92769 whole entry): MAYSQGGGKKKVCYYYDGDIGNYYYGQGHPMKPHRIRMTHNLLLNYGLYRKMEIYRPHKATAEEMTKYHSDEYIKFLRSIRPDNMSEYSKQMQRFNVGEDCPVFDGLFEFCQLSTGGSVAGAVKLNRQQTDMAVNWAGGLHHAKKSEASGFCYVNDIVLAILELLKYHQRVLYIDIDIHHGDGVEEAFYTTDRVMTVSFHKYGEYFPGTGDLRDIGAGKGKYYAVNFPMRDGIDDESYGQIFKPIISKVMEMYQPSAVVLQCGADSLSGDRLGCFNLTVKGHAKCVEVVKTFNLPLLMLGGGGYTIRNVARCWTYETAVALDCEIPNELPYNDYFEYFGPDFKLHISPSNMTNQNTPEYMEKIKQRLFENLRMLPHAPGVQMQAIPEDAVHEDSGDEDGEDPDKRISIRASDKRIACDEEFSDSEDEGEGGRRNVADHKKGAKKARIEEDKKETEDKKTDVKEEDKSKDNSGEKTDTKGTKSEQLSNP

SMILES | Cellular activity @1 uM (HDAC6 [1]) | Cellular activity @5 uM (HDAC6 [1]) | inhibition at 1 µM (HDAC2) | inhibition at 1 µM (HDAC6 [2])
FC1(F)CCN(CCn2ccc3cnc(-c4cc(-c5noc(C(F)(F)F)n5)ccn4)cc32)CC1 [Example 1ab, 3-(2-(1-(2-(4,4-Difluoropiperidin-1-yl)ethyl)-1H-pyrrolo[3,2-c]pyridin-6-yl)pyridin-4-yl)-5-(trifluoromethyl)-1,2,4-oxadiazole] | ++ (150-300) | ++ (150-300) | 38% | 93%
CN1CCC(C(=O)Nc2ccc(-c3cc(-c4noc(C(F)(F)F)n4)ccn3)nc2)CC1 [Example 1ac, 1-Methyl-N-(4′-(5-(trifluoromethyl)-1,2,4-oxadiazol-3-yl)-[2,2′-bipyridin]-5-yl)piperidine-4-carboxamide] | + (50-150) | ++ (150-300) | 18% | 78%
O=C(CC1CCC1)Nc1ccnc(-c2cc(-c3noc(C(F)(F)F)n3)ccn2)c1 [Example 1ae, 2-Cyclobutyl-N-(4′-(5-(trifluoromethyl)-1,2,4-oxadiazol-3-yl)-[2,2′-bipyridin]-4-yl)acetamide] | + (50-150) | + (50-150) | 5% | 85%
CCCn1cc(CO)c2cc(-c3cc(-c4noc(C(F)(F)F)n4)ccn3)ncc21 [Example 1ah, (1-Propyl-5-(4-(5-(trifluoromethyl)-1,2,4-oxadiazol-3-yl)pyridin-2-yl)-1H-pyrrolo[2,3-c]pyridin-3-yl)methanol] | + (50-150) | ++ (150-300) | 35% | 96%
FC(F)(F)c1nc(-c2ccnc(-c3cc4[nH]ccc4cn3)c2)no1 [Example 1ak, 3-(2-(1H-Pyrrolo[3,2-c]pyridin-6-yl)pyridin-4-yl)-5-(trifluoromethyl)-1,2,4-oxadiazole] | + (50-150) | ++ (150-300) | 14% | 90%
FC(F)(F)c1nc(-c2ccnc(-c3cc4c(ccn4Cc4ccncc4)cn3)c2)no1 [Example 1al, 3-(2-(1-(Pyridin-4-ylmethyl)-1H-pyrrolo[3,2-c]pyridin-6-yl)pyridin-4-yl)-5-(trifluoromethyl)-1,2,4-oxadiazole] | ++ (150-300) | ++ (150-300) | 31% | 92%
Cn1cc(-c2cn[nH]c2)c2cc(-c3cc(-c4noc(C(F)(F)F)n4)ccn3)ncc21 [Example 1ap, 3-(2-(1-Methyl-3-(1H-pyrazol-4-yl)-1H-pyrrolo[2,3-c]pyridin-5-yl)pyridin-4-yl)-5-(trifluoromethyl)-1,2,4-oxadiazole] | + (50-150) | ++ (150-300) | 6% | 86%
CCCCn1cc(C2=CCN(C)CC2)c2cc(-c3cc(-c4noc(C(F)(F)F)n4)ccn3)ncc21 [Example 1aq, 3-(2-(1-Butyl-3-(1-methyl-1,2,3,6-tetrahydropyridin-4-yl)-1H-pyrrolo[2,3-c]pyridin-5-yl)pyridin-4-yl)-5-(trifluoromethyl)-1,2,4-oxadiazole] | ++ (150-300) | ++ (150-300) | 2% | 89%
COCCn1ccc2cnc(-c3cc(-c4noc(C(F)(F)F)n4)ccn3)cc21 [Example 1au, 3-(2-(1-(2-Methoxyethyl)-1H-pyrrolo[3,2-c]pyridin-6-yl)pyridin-4-yl)-5-(trifluoromethyl)-1,2,4-oxadiazole] | + (50-150) | ++ (150-300) | 19% | 85%
CCN(CC)CCCOc1cnc(-c2cc(-c3noc(C(F)(F)F)n3)ccn2)nc1 [Example 1m, N,N-Diethyl-3-(2-(4-(5-(trifluoromethyl)-1,2,4-oxadiazol-3-yl)pyridin-2-yl)pyrimidin-5-yloxy)propan-1-amine] | − (<50) | + (50-150) | – | 81%
FC(F)(F)c1nc(-c2ccnc(-c3cc4c(ccn4CC4CCOCC4)cn3)c2)no1 [Example 1r, 3-(2-(1-((Tetrahydro-2H-pyran-4-yl)methyl)-1H-pyrrolo[3,2-c]pyridin-6-yl)pyridin-4-yl)-5-(trifluoromethyl)-1,2,4-oxadiazole] | ++ (150-300) | ++ (150-300) | – | 92%
FC(F)(F)c1nc(-c2ccnc(-c3cc(OCCN4CCOCC4)ccn3)c2)no1 [Example 1t, 4-(2-((4′-(5-(Trifluoromethyl)-1,2,4-oxadiazol-3-yl)-[2,2′-bipyridin]-4-yl)oxy)ethyl)morpholine] | − (<50) | + (50-150) | – | 88%
